Article PMC10663924 (Saudi Pharmaceutical Journal : SPJ, 2023)

Tests used:
HepG2 cell lines = experiment: cells; assay type: cell-based; conditions: Homo sapiens, HepG2, read-out: IC50 proliferation of HepG2 (abstract)
MCF7 cells [1] = experiment: Scratch; assay type: cell-based
human VEGFR-2 = human VEGFR-2 (Homo sapiens, UniProt P35968); experiment: biochemical
Human EGFR = Human EGFR (Homo sapiens, UniProt P00533); experiment: In vitro multikinase assay
BALB/c male mice = experiment: Determination of LD50 in mice; assay type: in vivo; conditions: mice, 1 and 3 gm/kg single dose orally, 24 h
[2] = Determination of LD50 in mice; assay type: in vivo; conditions: male, BALB/c, mouse, in vivo, po
TNF-α = experiment: qRT-PCR of TNF-α in MCF7 cells; assay type: cell-based; conditions: treated MCF7 cells vs control
Liver function test = conditions: mice; for ALT level: control 25.2 ± 1.2; for AST level: control 29.1 ± 1.1
IL-2 = experiment: qRT-PCR of IL-2 in MCF7 cells; assay type: cell-based; conditions: treated MCF7 cells vs control
Human PDGFRβ = Human PDGFRβ (Homo sapiens, UniProt P09619); experiment: In vitro multikinase assay
Vero cell line = experiment: MTT safety assay, Vero normal cells; assay type: cell-based; conditions: Chlorocebus sabaeus, read-out: IC50 against normal cell line (Vero)
MCF7 cells [3] = experiment: Annexin V / PI flow cytometry apoptosis analysis; assay type: cell-based; conditions: 30.95 µM
MCF7 cell lines = experiment: cells; assay type: cell-based; conditions: Homo sapiens, MCF7, read-out: IC50 proliferation of MCF7 (abstract)
[4] = 100 mg/kg oral single dose (group II)
[5] = 200 mg/kg oral single dose (group III)

Sequence of Human PDGFRβ (P09619 33-1106): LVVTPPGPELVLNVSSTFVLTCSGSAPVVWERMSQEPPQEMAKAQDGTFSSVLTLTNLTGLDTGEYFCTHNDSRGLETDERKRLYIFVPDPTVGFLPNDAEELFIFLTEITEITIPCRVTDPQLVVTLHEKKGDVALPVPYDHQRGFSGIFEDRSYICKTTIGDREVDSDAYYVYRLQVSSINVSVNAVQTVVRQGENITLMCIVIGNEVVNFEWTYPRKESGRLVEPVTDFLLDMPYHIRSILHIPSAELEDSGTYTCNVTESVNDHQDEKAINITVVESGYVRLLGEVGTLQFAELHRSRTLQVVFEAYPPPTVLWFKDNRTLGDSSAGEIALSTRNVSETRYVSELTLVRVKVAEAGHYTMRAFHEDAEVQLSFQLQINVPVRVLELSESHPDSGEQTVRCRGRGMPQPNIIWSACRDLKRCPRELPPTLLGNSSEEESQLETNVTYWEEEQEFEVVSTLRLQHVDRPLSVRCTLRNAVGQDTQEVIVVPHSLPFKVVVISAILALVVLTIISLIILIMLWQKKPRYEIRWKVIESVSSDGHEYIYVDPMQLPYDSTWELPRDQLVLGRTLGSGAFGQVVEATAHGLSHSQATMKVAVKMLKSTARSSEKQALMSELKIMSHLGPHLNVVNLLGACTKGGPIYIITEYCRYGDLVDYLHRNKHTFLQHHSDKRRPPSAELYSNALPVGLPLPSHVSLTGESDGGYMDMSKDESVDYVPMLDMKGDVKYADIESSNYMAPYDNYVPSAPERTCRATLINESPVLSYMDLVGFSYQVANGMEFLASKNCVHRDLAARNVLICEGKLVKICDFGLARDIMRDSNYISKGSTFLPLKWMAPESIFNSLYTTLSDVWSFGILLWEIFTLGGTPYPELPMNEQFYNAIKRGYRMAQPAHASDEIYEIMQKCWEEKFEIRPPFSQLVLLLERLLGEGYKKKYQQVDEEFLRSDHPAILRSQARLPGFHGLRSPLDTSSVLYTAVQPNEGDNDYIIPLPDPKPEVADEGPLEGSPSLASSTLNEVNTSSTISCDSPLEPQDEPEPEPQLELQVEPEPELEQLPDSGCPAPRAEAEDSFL
Sequence of human VEGFR-2 (P35968 20-1356): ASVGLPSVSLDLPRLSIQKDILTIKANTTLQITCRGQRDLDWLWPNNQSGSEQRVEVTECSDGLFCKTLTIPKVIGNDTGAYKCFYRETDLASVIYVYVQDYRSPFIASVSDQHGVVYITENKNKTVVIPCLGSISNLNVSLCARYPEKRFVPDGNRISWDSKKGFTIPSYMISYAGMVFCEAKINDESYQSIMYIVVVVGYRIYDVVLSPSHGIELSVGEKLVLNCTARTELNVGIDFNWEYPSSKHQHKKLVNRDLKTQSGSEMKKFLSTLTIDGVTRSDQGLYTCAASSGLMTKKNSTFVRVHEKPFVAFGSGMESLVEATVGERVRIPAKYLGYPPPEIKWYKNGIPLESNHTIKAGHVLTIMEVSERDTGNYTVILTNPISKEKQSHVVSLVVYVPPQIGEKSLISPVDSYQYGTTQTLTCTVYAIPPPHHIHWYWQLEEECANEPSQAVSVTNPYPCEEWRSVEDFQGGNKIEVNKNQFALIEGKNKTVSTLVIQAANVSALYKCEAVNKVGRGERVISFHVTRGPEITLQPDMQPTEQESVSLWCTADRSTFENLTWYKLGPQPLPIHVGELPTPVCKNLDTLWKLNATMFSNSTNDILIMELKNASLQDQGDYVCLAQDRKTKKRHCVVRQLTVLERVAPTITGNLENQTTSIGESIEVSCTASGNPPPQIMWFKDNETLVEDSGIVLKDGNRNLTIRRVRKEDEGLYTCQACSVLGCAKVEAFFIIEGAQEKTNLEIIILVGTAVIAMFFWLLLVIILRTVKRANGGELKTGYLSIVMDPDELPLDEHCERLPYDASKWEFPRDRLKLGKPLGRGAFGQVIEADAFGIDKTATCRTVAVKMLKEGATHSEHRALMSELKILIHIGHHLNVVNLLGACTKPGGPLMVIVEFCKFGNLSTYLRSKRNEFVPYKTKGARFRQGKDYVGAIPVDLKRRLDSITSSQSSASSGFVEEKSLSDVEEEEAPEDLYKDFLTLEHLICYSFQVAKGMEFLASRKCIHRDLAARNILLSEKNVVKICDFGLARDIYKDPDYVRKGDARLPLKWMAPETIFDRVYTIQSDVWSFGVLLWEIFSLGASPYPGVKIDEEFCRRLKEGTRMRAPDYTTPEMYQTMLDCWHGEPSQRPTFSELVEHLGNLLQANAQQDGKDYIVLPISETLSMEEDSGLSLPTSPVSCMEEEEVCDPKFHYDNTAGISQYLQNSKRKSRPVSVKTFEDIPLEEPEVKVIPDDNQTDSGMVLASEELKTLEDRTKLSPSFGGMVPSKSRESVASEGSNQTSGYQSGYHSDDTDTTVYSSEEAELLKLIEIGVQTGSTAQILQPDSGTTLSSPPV
Sequence of Human EGFR (P00533 25-1210): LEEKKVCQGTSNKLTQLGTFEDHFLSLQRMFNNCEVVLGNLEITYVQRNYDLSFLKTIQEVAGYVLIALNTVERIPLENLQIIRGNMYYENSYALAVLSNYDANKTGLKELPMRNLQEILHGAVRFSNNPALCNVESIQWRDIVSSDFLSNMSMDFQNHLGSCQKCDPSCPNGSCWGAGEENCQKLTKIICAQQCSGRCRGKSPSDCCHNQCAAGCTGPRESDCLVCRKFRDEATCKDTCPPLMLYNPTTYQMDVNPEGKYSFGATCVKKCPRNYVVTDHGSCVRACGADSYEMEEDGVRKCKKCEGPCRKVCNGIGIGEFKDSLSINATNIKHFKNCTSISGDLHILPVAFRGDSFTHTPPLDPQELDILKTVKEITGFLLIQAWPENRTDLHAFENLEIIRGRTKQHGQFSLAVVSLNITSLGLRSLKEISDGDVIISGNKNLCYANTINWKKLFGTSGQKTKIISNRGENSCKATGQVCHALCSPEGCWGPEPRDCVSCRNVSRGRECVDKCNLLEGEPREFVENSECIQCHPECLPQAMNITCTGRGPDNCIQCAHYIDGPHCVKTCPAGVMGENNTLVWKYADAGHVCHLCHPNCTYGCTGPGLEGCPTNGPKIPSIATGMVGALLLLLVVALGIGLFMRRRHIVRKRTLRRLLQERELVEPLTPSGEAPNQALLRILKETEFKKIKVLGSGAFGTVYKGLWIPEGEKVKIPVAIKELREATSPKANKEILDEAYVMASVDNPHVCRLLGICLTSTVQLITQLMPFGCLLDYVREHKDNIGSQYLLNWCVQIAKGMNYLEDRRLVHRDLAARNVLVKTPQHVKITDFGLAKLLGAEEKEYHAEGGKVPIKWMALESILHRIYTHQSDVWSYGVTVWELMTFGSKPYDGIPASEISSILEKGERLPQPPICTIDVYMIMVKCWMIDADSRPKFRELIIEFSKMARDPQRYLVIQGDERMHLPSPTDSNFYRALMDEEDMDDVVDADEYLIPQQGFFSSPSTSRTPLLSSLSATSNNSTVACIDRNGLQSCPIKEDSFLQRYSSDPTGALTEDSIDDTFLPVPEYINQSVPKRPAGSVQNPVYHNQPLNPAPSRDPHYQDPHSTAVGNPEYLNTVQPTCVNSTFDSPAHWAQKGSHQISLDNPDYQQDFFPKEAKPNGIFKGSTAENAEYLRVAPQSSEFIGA

SMILES: CC(=NNC(=O)c1cccc(C)c1)c1ccc(NC(=O)Cn2c(=O)c3c(ncn3C)n(C)c2=O)cc1 [T-1-MBHEPA, 2-(3,7-dimethyl-2,6-dioxo-2,3,6,7-tetrahydro-1H-purin-1-yl)-N-(4-(1-(2-(3-methylbenzoyl)hydrazono)ethyl)phenyl)acetamide]
- IC50 (HepG2 cell lines): 4.61 µM
- Scratch area at 48 h (MCF7 cells [1]; MCF7): 892.6667
- Scratch width at 48 h (MCF7 cells [1]; MCF7): 891.751
- Area difference % (MCF7 cells [1]; MCF7, 48 h): 71.333%
- RM um (MCF7 cells [1]; MCF7, 48 h): 1.485 um
- Wound closure % um^2 (MCF7 cells [1]; MCF7, 48 h): 7.399 % um^2
- Decrease of scratch width (healing and migration) within 48 h (MCF7 cells [1]; MCF7, 48 h, untreated 65.9 %): 7.4%
- IC50 (human VEGFR-2): 0.121 ± 0.051 µM
- IC50 (Human EGFR): 0.355 ± 0.014 µM
- Tolerability of the other doses (BALB/c male mice): well tolerated
- LD50 at 24 h [2]: 5000 mg/kg
- Reduction of TNF-α production (TNF-α): 33%
- ALT level (Liver function test; [4]): 25.3 ± 2.1
- AST level (Liver function test; [4]): 29.2 ± 1.1
- ALT level (Liver function test; [5]): 28.9 ± 2.1
- AST level (Liver function test; [5]): 31.7 ± 1.8
- Reduction of IL-2 production (IL-2): 58%
- IC50 (Human PDGFRβ): 0.179 ± 0.009 µM
- IC50 (Vero cell line): 80 µM
- Apoptosis Early % (MCF7 cells [3]): 7.22%
- Apoptosis Late % (MCF7 cells [3]): 2.72%
- Apoptosis Total % (MCF7 cells [3]): 21.35%
- Necrosis % (MCF7 cells [3]): 11.41%
- IC50 (MCF7 cell lines): 4.85 µM
